The subject of one experiment is NCI-H929. The experiment is described as follows: Inhibition of cell proliferation (CellTiter-Glo or InCell analyzer), NCI-H929. To be noted: Homo sapiens, 72 h / 3 days, values given as IC50 category. The class given is cell-based. In short, it runs like this: In one
In a further experiment the test system is Colo205. The experiment is described as follows: Inhibition of cell proliferation (CellTiter-Glo or InCell analyzer), Colo205. The class given is cell-based. To be noted: Homo sapiens, COLO 205, 72 h / 3 days, values given as IC50 category. The essentials: In one
A further experiment addresses T1, human IGF1R (hIGF1R) (Homo sapiens, UniProt P08069).
T1 construct: containing amino acid residues 957-1367 of human IGF1R; made in house; host or cells: Sf9 cells (baculovirus)
The experiment is described as follows: TR-FRET kinase assay of purified hIGF1R. It counts as biochemical. To be noted: activated hIGF1R 0.5 nM, 10 μM ATP, values given as pIC50 category, read-out: IGF-1R pIC50 (converted).

T1 sequence (P08069 957-1367): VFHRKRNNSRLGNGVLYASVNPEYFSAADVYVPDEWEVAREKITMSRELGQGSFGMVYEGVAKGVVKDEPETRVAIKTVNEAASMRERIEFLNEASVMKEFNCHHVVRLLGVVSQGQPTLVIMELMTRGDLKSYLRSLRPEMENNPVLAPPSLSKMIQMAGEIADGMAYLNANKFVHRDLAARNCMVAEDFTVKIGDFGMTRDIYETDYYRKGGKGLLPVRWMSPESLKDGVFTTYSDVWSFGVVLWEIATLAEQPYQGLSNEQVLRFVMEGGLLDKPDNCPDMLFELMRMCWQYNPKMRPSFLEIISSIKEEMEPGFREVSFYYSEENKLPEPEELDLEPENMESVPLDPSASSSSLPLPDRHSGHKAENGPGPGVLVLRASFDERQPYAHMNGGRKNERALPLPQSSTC

With `CNCC(=O)N1CCc2cc(OC)c(Nc3nc(Nc4cccc(F)c4C(N)=O)c4cc[nH]c4n3)cc21` [Example 142, 2-fluoro-6-[(2-{[1-(N-methylglycyl)-5-(methyloxy)-2,3-dihydro-1H-indol-6-yl]amino}-1H-pyrrolo[2,3-d]pyrimidin-4-yl)amino]benzamide], the IC50 in the experiment on NCI-H929 is 250 to 1000 nM; in the experiment with Colo205, 250 to 1000 nM; at human IGF1R (hIGF1R), 1.26 to 3.98 nM.

`COc1cc2c(cc1Nc1nc(Nc3cc(F)cc(F)c3C(=O)NC(C)C)c3cc[nH]c3n1)N(C(=O)CN(C)C)CC2` [Example 153, 2-[(2-{[1-(N,N-dimethylglycyl)-5-(methyloxy)-2,3-dihydro-1H-indol-6-yl]amino}-1H-pyrrolo[2,3-d]pyrimidin-4-yl)amino]-4,6-difluoro-N-(1-methylethyl)benzamide]: the IC50 was over 1000 nM in the experiment with NCI-H929, over 1000 nM in the experiment on Colo205 and 1.26 to 3.98 nM at human IGF1R (hIGF1R).

On to `COc1cc2c(cc1Nc1nc(Nc3cc(F)cc(F)c3C(=O)NCC(C)C)c3cc[nH]c3n1)N(C(=O)CN(C)C)CC2` [Example 154, 2-[(2-{[1-(N,N-dimethylglycyl)-5-(methyloxy)-2,3-dihydro-1H-indol-6-yl]amino}-1H-pyrrolo[2,3-d]pyrimidin-4-yl)amino]-4,6-difluoro-N-(2-methylpropyl)benzamide], for which the IC50 with NCI-H929 was 250 to 1000 nM; in the experiment with Colo205, over 1000 nM; at human IGF1R (hIGF1R) it was 1.26 to 3.98 nM.

For the molecule `COc1cc2c(cc1Nc1nc(Nc3cc(F)cc(F)c3C(=O)NCc3ccc(F)cc3)c3cc[nH]c3n1)N(C(=O)CN(C)C)CC2` [Example 155, 2-[(2-{[1-(N,N-dimethylglycyl)-5-(methyloxy)-2,3-dihydro-1H-indol-6-yl]amino}-1H-pyrrolo[2,3-d]pyrimidin-4-yl)amino]-4,6-difluoro-N-[(4-fluorophenyl)methyl]benzamide], the IC50 is over 1000 nM with NCI-H929, over 1000 nM in the experiment with Colo205 and 1.26 to 3.98 nM at human IGF1R (hIGF1R).

With `CCCNC(=O)c1c(F)cccc1Nc1nc(Nc2cc3c(cc2OC)CCN3C(=O)CN(C)C)nc2[nH]ccc12` [Example 156, 2-[(2-{[1-(N,N-dimethylglycyl)-5-(methyloxy)-2,3-dihydro-1H-indol-6-yl]amino}-1H-pyrrolo[2,3-d]pyrimidin-4-yl)amino]-6-fluoro-N-propylbenzamide], the IC50 was 250 to 1000 nM in the experiment on NCI-H929, over 1000 nM in the experiment on Colo205 and 1.26 to 3.98 nM at human IGF1R (hIGF1R).

Regarding `COc1cc2c(cc1Nc1nc(Nc3cccc(F)c3C(=O)NCC(C)C)c3cc[nH]c3n1)N(C(=O)CN(C)C)CC2` [Example 157, 2-[(2-{[1-(N,N-dimethylglycyl)-5-(methyloxy)-2,3-dihydro-1H-indol-6-yl]amino}-1H-pyrrolo[2,3-d]pyrimidin-4-yl)amino]-6-fluoro-N-(2-methylpropyl)benzamide], the IC50 in the experiment on NCI-H929 was 250 to 1000 nM; in the experiment with Colo205, over 1000 nM; at human IGF1R (hIGF1R), 1.26 to 3.98 nM.

Take `COc1cc2c(cc1Nc1nc(Nc3cccc(F)c3C(=O)NC(C)C)c3cc[nH]c3n1)N(C(=O)CN(C)C)CC2` [Example 158, 2-[(2-{[1-(N,N-dimethylglycyl)-5-(methyloxy)-2,3-dihydro-1H-indol-6-yl]amino}-1H-pyrrolo[2,3-d]pyrimidin-4-yl)amino]-6-fluoro-N-(1-methylethyl)benzamide]: the IC50 is 250 to 1000 nM with NCI-H929, 250 to 1000 nM in the experiment with Colo205 and 1.26 to 3.98 nM at human IGF1R (hIGF1R).

Take `COc1cc2c(cc1Nc1nc(Nc3ccc(F)c(F)c3C(N)=O)c3cc[nH]c3n1)N(C(=O)CN(C)C)CCC2` [Example 162, 6-[(2-{[1-(N,N-dimethylglycyl)-6-(methyloxy)-1,2,3,4-tetrahydro-7-quinolinyl]amino}-1H-pyrrolo[2,3-d]pyrimidin-4-yl)amino]-2,3-difluorobenzamide]: the IC50 in the experiment on NCI-H929 is under 250 nM; in the experiment with Colo205, under 250 nM; on human IGF1R (hIGF1R), 1.26 to 3.98 nM.

For the molecule `CNC(=O)c1c(Nc2nc(Nc3cc4c(cc3OC)CCCN4C(=O)CN(C)C)nc3[nH]ccc23)ccc(F)c1F` [Example 163, 6-[(2-{[1-(N,N-dimethylglycyl)-6-(methyloxy)-1,2,3,4-tetrahydro-7-quinolinyl]amino}-1H-pyrrolo[2,3-d]pyrimidin-4-yl)amino]-2,3-difluoro-N-methylbenzamide], the results for the IC50 in the experiment with NCI-H929, in the experiment on Colo205 and on human IGF1R (hIGF1R) were under 250 nM, 250 to 1000 nM and 1.26 to 3.98 nM, respectively.

Consider `CCN(C)CC(=O)N1CCc2cc(OC)c(Nc3nc(Nc4cccc(F)c4C(N)=O)c4cc[nH]c4n3)cc21` [Example 166, 2-[(2-{[1-(N-ethyl-N-methylglycyl)-5-(methyloxy)-2,3-dihydro-1H-indol-6-yl]amino}-1H-pyrrolo[2,3-d]pyrimidin-4-yl)amino]-6-fluorobenzamide], for which the IC50 was under 250 nM with NCI-H929, 250 to 1000 nM with Colo205 and 1.26 to 3.98 nM on human IGF1R (hIGF1R).

Consider `CCCN(C)CC(=O)N1CCc2cc(OC)c(Nc3nc(Nc4cccc(F)c4C(=O)NC)c4cc[nH]c4n3)cc21` [Example 167, 2-fluoro-N-methyl-6-[(2-{[5-(methyloxy)-1-(N-methyl-N-propylglycyl)-2,3-dihydro-1H-indol-6-yl]amino}-1H-pyrrolo[2,3-d]pyrimidin-4-yl)amino]benzamide], for which the IC50 with NCI-H929 is under 250 nM; in the experiment on Colo205, 250 to 1000 nM; at human IGF1R (hIGF1R), 1.26 to 3.98 nM.

`CNC(=O)c1c(F)cc(Cl)cc1Nc1nc(Nc2cc3c(cc2OC)CCCN3C(=O)CN2CCCC2)nc2[nH]ccc12` [Example 174, 4-chloro-2-fluoro-N-methyl-6-[(2-{[6-(methyloxy)-1-(1-pyrrolidinylacetyl)-1,2,3,4-tetrahydro-7-quinolinyl]amino}-1H-pyrrolo[2,3-d]pyrimidin-4-yl)amino]benzamide]: the results for the IC50 in the experiment on NCI-H929, in the experiment with Colo205 and on human IGF1R (hIGF1R) were 250 to 1000 nM, 250 to 1000 nM and 1.26 to 3.98 nM, respectively.

On to `CCN(CCO)CC(=O)N1CCc2cc(OC)c(Nc3nc(Nc4cccc(F)c4C(N)=O)c4cc[nH]c4n3)cc21` [Example 177, 2-[(2-{[1-[N-ethyl-N-(2-hydroxyethyl)glycyl]-5-(methyloxy)-2,3-dihydro-1H-indol-6-yl]amino}-1H-pyrrolo[2,3-d]pyrimidin-4-yl)amino]-6-fluorobenzamide], for which the IC50 is 250 to 1000 nM in the experiment on NCI-H929, over 1000 nM with Colo205 and 1.26 to 3.98 nM at human IGF1R (hIGF1R).

Consider `COc1cc2c(cc1Nc1nc(Nc3cccc(F)c3C(N)=O)c3cc[nH]c3n1)CCN2C(=O)CN(C)C` [Example 197, 2-[(2-{[1-(N,N-dimethylglycyl)-6-(methyloxy)-2,3-dihydro-1H-indol-5-yl]amino}-1H-pyrrolo[2,3-d]pyrimidin-4-yl)amino]-6-fluorobenzamide], for which the IC50 with NCI-H929 was under 250 nM; in the experiment with Colo205, under 250 nM; at human IGF1R (hIGF1R) it was 1.26 to 3.98 nM.

Regarding `CNC(=O)c1c(F)cccc1Nc1nc(Nc2cc3c(cc2OC)N(C(=O)CN(C)C)CC3)nc2[nH]ccc12` [Example 198, 2-[(2-{[1-(N,N-dimethylglycyl)-6-(methyloxy)-2,3-dihydro-1H-indol-5-yl]amino}-1H-pyrrolo[2,3-d]pyrimidin-4-yl)amino]-6-fluoro-N-methylbenzamide], the IC50 in the experiment with NCI-H929 is 250 to 1000 nM; with Colo205 it was under 250 nM; at human IGF1R (hIGF1R), 1.26 to 3.98 nM.

Regarding `COc1cc(N2CCN(C(C)C)CC2)ccc1Nc1nc(Nc2cccc3c2C(=O)NC3)c2cc[nH]c2n1` [Example 199, 7-[(2-{[4-[4-(1-methylethyl)-1-piperazinyl]-2-(methyloxy)phenyl]amino}-1H-pyrrolo[2,3-d]pyrimidin-4-yl)amino]-2,3-dihydro-1H-isoindol-1-one], the IC50 in the experiment with NCI-H929 was under 250 nM; in the experiment with Colo205 it was under 250 nM; on human IGF1R (hIGF1R) it was 1.26 to 3.98 nM.

Turning to `CCCN1CCC(COc2ccc(Nc3nc(Nc4cccc(F)c4C(N)=O)c4cc[nH]c4n3)c(OC)c2)CC1` [Example 206, 2-fluoro-6-({2-[(2-(methyloxy)-4-{[(1-propyl-4-piperidinyl)methyl]oxy}phenyl)amino]-1H-pyrrolo[2,3-d]pyrimidin-4-yl}amino)benzamide], the IC50 is under 250 nM in the experiment with NCI-H929, 250 to 1000 nM in the experiment with Colo205 and 1.26 to 3.98 nM on human IGF1R (hIGF1R).

On to `COc1cc(N2CCCN(C)CC2)ccc1Nc1nc(Nc2cccc(F)c2C(N)=O)c2cc[nH]c2n1` [Example 209, 2-fluoro-6-[(2-{[4-(4-methylhexahydro-1H-1,4-diazepin-1-yl)-2-(methyloxy)phenyl]amino}-1H-pyrrolo[2,3-d]pyrimidin-4-yl)amino]benzamide], for which the IC50 is under 250 nM in the experiment with NCI-H929, under 250 nM in the experiment with Colo205 and 1.26 to 3.98 nM on human IGF1R (hIGF1R).

As to `CNC(=O)c1c(F)cccc1Nc1nc(Nc2cc3c(cc2OC)CCCN3C(=O)CN(C)C)nc2[nH]ccc12` [Example 212, 2-[(2-{[1-(N,N-dimethylglycyl)-6-(methyloxy)-1,2,3,4-tetrahydro-7-quinolinyl]amino}-1H-pyrrolo[2,3-d]pyrimidin-4-yl)amino]-6-fluoro-N-methylbenzamide], the values for the IC50 in the experiment with NCI-H929, in the experiment on Colo205 and at human IGF1R (hIGF1R) were under 250 nM, 250 to 1000 nM and 1.26 to 3.98 nM, respectively.

`CNC(=O)c1c(F)cccc1Nc1nc(Nc2cc3c(cc2OC)CCCN3C(=O)CN2CCCCC2)nc2[nH]ccc12` [Example 217, 2-fluoro-N-methyl-6-[(2-{[6-(methyloxy)-1-(1-piperidinylacetyl)-1,2,3,4-tetrahydro-7-quinolinyl]amino}-1H-pyrrolo[2,3-d]pyrimidin-4-yl)amino]benzamide]: the IC50 in the experiment with NCI-H929 was under 250 nM; in the experiment on Colo205 it was 250 to 1000 nM; at human IGF1R (hIGF1R), 1.26 to 3.98 nM.

On to `COc1cc2c(cc1Nc1nc(Nc3cccc(F)c3C(N)=O)c3cc[nH]c3n1)CN(CCF)CC2` [Example 233, 2-fluoro-6-[(2-{[2-(2-fluoroethyl)-6-(methyloxy)-1,2,3,4-tetrahydro-7-isoquinolinyl]amino}-1H-pyrrolo[2,3-d]pyrimidin-4-yl)amino]benzamide], for which the IC50 is under 250 nM in the experiment on NCI-H929, 250 to 1000 nM in the experiment on Colo205 and 1.26 to 3.98 nM on human IGF1R (hIGF1R).

(Values after patent US7981903B2, “2-[2-{phenylamino}-1H-pyrrolo[2,3-D]pyrimidin-4-yl)amino] benzamide derivatives as IGF-1R inhibitors for the treatment of cancer” (GlaxoSmithKline LLC, priority 2007, dated 2011).)
